Source: PMC7956620 (Molecules, 2021)
Where two headings read alike, the source gives them in different places.

Molecular target: T1, human 5-HT3A receptor (Homo sapiens, UniProt P46098)
T1 construct: host or cells: Xenopus laevis oocytes injected with in vitro transcribed mRNA
T1 sequence (P46098 24-478): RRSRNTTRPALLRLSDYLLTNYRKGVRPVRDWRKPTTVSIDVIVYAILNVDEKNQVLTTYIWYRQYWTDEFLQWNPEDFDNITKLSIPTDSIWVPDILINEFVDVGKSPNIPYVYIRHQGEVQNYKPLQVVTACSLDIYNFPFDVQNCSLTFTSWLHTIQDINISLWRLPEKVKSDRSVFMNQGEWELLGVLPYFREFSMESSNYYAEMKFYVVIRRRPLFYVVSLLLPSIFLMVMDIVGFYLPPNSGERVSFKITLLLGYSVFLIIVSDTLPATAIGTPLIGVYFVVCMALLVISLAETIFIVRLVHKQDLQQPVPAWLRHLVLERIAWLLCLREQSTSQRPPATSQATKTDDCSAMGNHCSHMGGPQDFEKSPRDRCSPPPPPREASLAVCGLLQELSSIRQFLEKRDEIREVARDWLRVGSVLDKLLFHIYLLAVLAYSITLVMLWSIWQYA
Assay: cell-based
Assay type: cell-based
Conditions: for inhibition of voltage ramp current activated by 5-HT: 100 µM 5-HT and EC
Experimental: Human 5-hydroxytryptamine (serotonin) receptor 3A cDNA (Genebank number: BC004453) was obtained from OriGene (Rockville, MD, USA). Figure 1A represents the chemical structure of two ergot alkaloids, EG and EC, obtained from Sigma-Aldrich (St. Louis, MO, USA). These ergot alkaloids were diluted in bath solution after dissolving in dimethyl sulfoxide (DMSO) for use as stock solutions. The final treatment concentration of DMSO was less than 0.01%. Xenopus laevis frogs were obtained from the Korean Xenopus Resource Center for Research (KXRCR000001, Chuncheon, Gangwondo, Korea), and other agents were purchased from Sigma-Aldrich.
To isolate oocytes, female Xenopus laevis were put into a container filled with ice and left for about one hour. When the blood vessels contracted and fell into a state similar to hibernation, the abdomen was incised, and the ovaries were removed and cut into small pieces in Ca^2+-free OR2 solution (82.5 mM NaCl, 2.5 mM KCl, 1 mM MgCl2, and 5 mM HEPES, pH 7.4) with 2 mg/mL collagenase. After a 2 h agitation to digest the follicle membranes, isolated oocytes in stages Ⅴ and Ⅵ were selected and washed repeatedly. The selected oocytes were maintained in ND96 incubation solution (96 mM NaCl, 2 mM KCl, 1.8 mM CaCl2, 1 mM MgCl2, 5 mM HEPES, 2.5 mM sodium pyruvate, and 50 µg/mL gentamycin, pH 7.4) at 16–18 °C. The solution containing the oocytes was changed twice a day and stored in a shaking incubator. Under the microscope, the end of a glass capillary was broken and fitted with a 20 µm diameter needle and filled with mineral oil, discharging air bubbles from the tip. When the Xenopus oocytes were ready for injection, 50 ng of mRNA was injected with a nanoliter injector (Drummond Scientific, Vernon Hills, IL, USA). The recording was started after two days of sufficient shaking incubation in ND96 solution. Surgery, microinjections, and the other handling of Xenopus laevis followed the standard protocols.
The oocytes in which mRNA was expressed during the incubation period allowed for the estimation of channel or receptor properties for observing drug and ligand potential interactions using a two-electrode voltage clamp (OC-725C; Warner Instruments, Hamden, CT, USA) and Digidata (1322A; Molecular Devices, Sunnyvale, CA, USA). The two-electrode voltage clamp had voltage and current electrodes that stably maintained the potential and delivered the transmembrane potential and high current. […] A computer transferred the converted output amplitude of the voltage clamp amplifiers to an input digital converter using pClamp 10 software (Axon Instruments, Union City, CA, USA). The voltage and current electrodes were filled with 3 M KCl (0.3–0.7 MΩ) and analyzed at a −80 mV holding potential. The oocytes were placed in the chamber and exposed to a ND96 solution at a flow rate of 2 mL per minute. In the electrophysiological experiments, the voltage ramp recording was performed at room temperature, and a current from −80 to +60 mV was applied to determine the current and voltage relationships. Inward peak traces of the 5-HT3A receptor and voltage ramp traces were converted to a value through Clampfit 9.0 (Molecular Devices, San Jose, CA, USA).
In the experiments, all data were represented as the mean ± SEM (standard error of the mean) of the 5-HT-stimulated inward peak in the 5-HT3A receptors. […] All curves plotted through the Hill equation were generated using Origin Pro 7.0 (OriginLab, Northampton, MA, USA). The significance of differences between the control and chanoclavine treatment was determined according to the p-value in the Student’s t-test. p-values of less than 0.05 were considered statistically significant.

CN[C@@H]1Cc2c[nH]c3cccc(c23)[C@H]1/C=C(\C)CO [chanoclavine]
inhibition at 10 µM (10 µM compound with 100 µM 5-HT, −80 mV, read-out: inhibition of I5-HT): 4 ± 3.8%
inhibition at 30 µM (30 µM compound with 100 µM 5-HT, −80 mV, read-out: inhibition of I5-HT): 7.9 ± 4.1%
inhibition at 100 µM (100 µM chanoclavine, wild type, read-out: Inhibition Percentage (%)): 42.5 ± 5.7%
inhibition at 100 µM (100 µM compound with 100 µM 5-HT, −80 mV, read-out: inhibition of I5-HT): 42.5 ± 9.7%
inhibition at 200 µM (200 µM compound with 100 µM 5-HT, −80 mV, read-out: inhibition of I5-HT): 61.6 ± 6.1%
inhibition at 300 µM (300 µM compound with 100 µM 5-HT, −80 mV, read-out: inhibition of I5-HT): 75 ± 4.5%
Imax of normalized 5-HT concentration-response current (5-HT 1 to 100 µM with 30 µM EC, −80 mV): 94.6 ± 24.4
Imax of normalized 5-HT concentration-response current (5-HT 1 to 100 µM with 100 µM EC, −80 mV): 60 ± 2.2
inhibition of voltage ramp current activated by 5-HT (+30 mV): 47.9 ± 3.4%
inhibition of voltage ramp current activated by 5-HT (+60 mV): 49.5 ± 4%
maximum inhibition (Imax) (Hill fit, co-application with 100 µM 5-HT, −80 mV): 83.6 ± 12.6%
IC50 (co-application with 5-HT, read-out: half-maximal inhibitory response concentration (IC50) for block of 5-HT-induced 5-HT3A response): 107 µM
current relative to the control group (competing at the same rate as 5-HT): about 50%
manner of regulation of 5-HT3A-receptor channel activity (varied 5-HT concentration, fixed 30 or 100 µM chanoclavine): competitive
inhibition of voltage ramp current activated by 5-HT (−30 mV): 40.9 ± 1.1%
effect of compound alone (without 5-HT) (−80 mV holding potential, data not shown): no change
